Here are results for 30 compounds from patent US20080207708A1, “Oxazole and Thiazole Compounds and Their Use in the Treatment of Pge2 Mediated Disorders” (GLAXO GROUP LIMITED, priority 2005, published 2008).

The target in this assay is T1, EP1 receptors (Homo sapiens, UniProt P34995).
T1 sequence (P34995 1-402): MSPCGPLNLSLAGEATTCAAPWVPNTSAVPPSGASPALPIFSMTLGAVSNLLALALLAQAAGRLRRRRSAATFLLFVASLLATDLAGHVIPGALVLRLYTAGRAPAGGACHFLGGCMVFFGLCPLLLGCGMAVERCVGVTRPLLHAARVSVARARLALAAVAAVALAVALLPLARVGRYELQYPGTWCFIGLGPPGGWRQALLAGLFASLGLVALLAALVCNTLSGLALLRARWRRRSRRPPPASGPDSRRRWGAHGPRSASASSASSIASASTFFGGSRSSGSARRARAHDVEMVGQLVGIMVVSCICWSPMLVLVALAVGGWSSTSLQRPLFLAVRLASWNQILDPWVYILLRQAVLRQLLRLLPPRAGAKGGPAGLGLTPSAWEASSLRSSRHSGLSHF
The assay can be described thus: Binding assay for the human prostanoid EP1 receptor (competition with [3H]-PGE2). To be noted: [3H]-PGE2 competition; averages of a number of experiments; read-out: pIC50 value, binding assay for the human prostanoid EP1 receptor (converted). Details: expressed in transfected cells; host or cells: CHO-K1 cells, membrane fraction. The procedure:
Competition assay using [^3H]-PGE2.
Compound potencies are determined using a radioligand binding assay. In this assay compound potencies are determined from their ability to compete with tritiated prostaglandin E2 ([^3H]-PGE2) for binding to the human EP1 receptor.
This assay utilises Chinese hamster ovary-K1 (CHO-K1) cells into which a stable vector containing the EP1 cDNA has previously been transfected. Cells are cultured in suitable flasks containing culture medium such as DMEM:F-12 supplemented with 10% v/v foetal calf serum, 2 mM L-glutamine, 0.25 mg/ml geneticin, 10 μg/ml puromycin and 10 μM indomethacin.
Cells are detached from the culture flasks by incubation in calcium and magnesium free phosphate buffered saline containing 1 mM disodium ethylenediaminetetraacetic acid (Na2EDTA) and 10 μM indomethacin for 5 min. The cells are isolated by centrifugation at 250×g for 5mins and suspended in an ice cold buffer such as 50 mM Tris, 1 mM Na2EDTA, 140 mM NaCl, 10 μM indomethacin (pH 7.4). The cells are homogenised using a Polytron tissue disrupter (2×10 s burst at full setting), centrifuged at 48,000×g for 20mins and the pellet containing the membrane fraction is washed (optional) three times by suspension and centrifugation at 48,000×g for 20mins. The final membrane pellet is suspended in an assay buffer such as 10 mM 2-[N-morpholino]ethanesulphonic acid, 1 mM Na2EDTA, 10 mM MgCl2 (pH 6). Aliquots are frozen at […] until required.
For the binding assay the cell membranes, competing compounds and [^3H]-PGE2 (3 nM final assay concentration) are incubated in a final volume of 100 μl for 30 min at 30° C. All reagents are prepared in assay buffer. Reactions are terminated by rapid vacuum filtration over GF/B filters using a Brandell cell harvester. The filters are washed with ice cold assay buffer, dried and the radioactivity retained on the filters is measured by liquid scintillation counting in Packard TopCount scintillation counter.
The data are analysed using non linear curve fitting techniques to determine the concentration of compound producing 50% inhibition of specific binding (IC50).
With `O=C(O)c1csc(Cc2cc(C(F)(F)F)ccc2OCc2ccccc2F)n1` [Example 29, Sodium 2-{[2-{[(2-fluorophenyl)methyl]oxy}-5-(trifluoromethyl)phenyl]methyl}-1,3-thiazole-4-carboxylate], the IC50 was no more than 31.6 nM. The result for `O=C(O)c1csc(Cc2cc(C(F)(F)F)ccc2OCc2ccccc2Cl)n1` [Example 30, Sodium 2-{[2-{[(2-chlorophenyl)methyl]oxy}-5-(trifluoromethyl)phenyl]methyl}-1,3-thiazole-4-carboxylate] reads no more than 31.6 nM. On to `O=C(O)c1csc(Cc2cc(C(F)(F)F)ccc2OCc2ccc(Br)cc2)n1` [Example 31, Sodium 2-{[2-{[(4-bromophenyl)methyl]oxy}-5-(trifluoromethyl)phenyl]methyl}-1,3-thiazole-4-carboxylate], for which the IC50 was no more than 31.6 nM. In the case of `O=C(O)c1csc(Cc2cc(C(F)(F)F)ccc2OCc2ccc(Cl)cc2F)n1` [Example 32, Sodium 2-{[2-{[(4-chloro-2-fluorophenyl)methyl]oxy}-5-(trifluoromethyl)phenyl]methyl}-1,3-thiazole-4-carboxylate], the IC50 is no more than 31.6 nM. For the compound `O=C(O)c1csc(Cc2cc(C(F)(F)F)ccc2OCc2ccc(F)cc2Cl)n1` [Example 33, Sodium 2-{[2-{[(2-chloro-4-fluorophenyl)methyl]oxy}-5-(trifluoromethyl)phenyl]methyl}-1,3-thiazole-4-carboxylate], the IC50 is no more than 31.6 nM.

`O=C(O)c1csc(Cc2cc(C(F)(F)F)ccc2OCc2cccc(F)c2F)n1` [Example 34, Sodium 2-{[2-{[(2,3-difluorophenyl)methyl]oxy}-5-(trifluoromethyl)phenyl]methyl}-1,3-thiazole-4-carboxylate]: the IC50 was no more than 31.6 nM.

On to `O=C(O)c1csc(Cc2cc(C(F)(F)F)ccc2OCc2ccc(F)c(F)c2F)n1` [Example 35, Sodium 2-{[5-(trifluoromethyl)-2-{[(2,3,4-trifluorophenyl)methyl]oxy}phenyl)methyl]-1,3-thiazole-4-carboxylate], for which the IC50 was no more than 1000 nM. For `O=C(O)c1csc(Cc2cc(C(F)(F)F)ccc2OCc2cc(F)c(F)cc2F)n1` [Example 36, Sodium 2-[(5-(trifluoromethyl)-2-{[(2,4,5-trifluorphenyl)methyl]oxy}phenyl)methyl]-1,3-thiazole-4-carboxylate], the IC50 is no more than 31.6 nM.

On to `CCCOc1ccc(C(F)(F)F)cc1Cc1nc(C(=O)O)cs1` [Example 37, Sodium 2-{[2-(propyloxy)-5-(trifluoromethyl)phenyl]methyl}-1,3-thiazole-4-carboxylate], for which the IC50 is no more than 31.6 nM. `CCCCOc1ccc(C(F)(F)F)cc1Cc1nc(C(=O)O)cs1` [Example 38, Sodium 2-{[2-(butyloxy)-5-(trifluoromethyl)phenyl]methyl}-1,3-thiazole-4-carboxylate]: the IC50 is no more than 1000 nM.

`O=C(O)c1csc(Cc2cc(C(F)(F)F)ccc2OCC2CC2)n1` [Example 39, Sodium 2-{[2-[(cyclopropylmethyl)oxy]-5-(trifluoromethyl)phenyl]methyl}-1,3-thiazole-4-carboxylate]: the IC50 was no more than 31.6 nM. Take `CCCCCOc1ccc(C(F)(F)F)cc1Cc1nc(C(=O)O)cs1` [Example 40, Sodium 2-{[2-(pentyloxy)-5-(trifluoromethyl)phenyl]methyl}-1,3-thiazole-4-carboxylate]: the IC50 was no more than 1000 nM. For the compound `CC(C)CCOc1ccc(C(F)(F)F)cc1Cc1nc(C(=O)O)cs1` [Example 41, Sodium 2-{[2-[(3-methylbutyl)oxy]-5-(trifluoromethyl)phenyl]methyl}-1,3-thiazole-4-carboxylate], the IC50 was no more than 31.6 nM. The result for `O=C(O)c1csc(Cc2cc(C(F)(F)F)ccc2OCC2CCCCC2)n1` [Example 42, Sodium 2-{[2-[(cyclohexylmethyl)oxy]-5-(trifluoromethyl)phenyl]methyl}-1,3-thiazole-4-carboxylate] reads no more than 1000 nM; that for `O=C(O)c1csc(Cc2cc(C(F)(F)F)ccc2OCC2CCC2)n1` [Example 43, Sodium 2-{[2-[(cyclobutylmethyl)oxy]-5-(trifluoromethyl)phenyl]methyl}-1,3-thiazole-4-carboxylate], no more than 31.6 nM. The result for `CC(C)COc1ccc(C(F)(F)F)cc1Cc1nc(C(=O)O)cs1` [Example 44, Sodium 2-{[2-[(2-methylpropyl)oxy]-5-(trifluoromethyl)phenyl]methyl}-1,3-thiazole-4-carboxylate] reads no more than 31.6 nM; that for `O=C(O)c1csc(Cc2cc(C(F)(F)F)ccc2OCC2CCCC2)n1` [Example 45, Sodium 2-{[2-[(cyclopentylmethyl)oxy]-5-(trifluoromethyl)phenyl]methyl}-1,3-thiazole-4-carboxylate], no more than 31.6 nM; that for `O=C(O)c1csc(Cc2cc(Br)ccc2OCc2ccccc2F)n1` [Example 51, Sodium 2-[(5-bromo-2-{[(2-fluorophenyl)methyl]oxy}phenyl)methyl]-1,3-thiazole-4-carboxylate], no more than 31.6 nM. As for `O=C(O)c1csc(Cc2cc(Br)ccc2OCc2ccc(F)cc2)n1` [Example 52, Sodium 2-[(5-bromo-2-{[(4-fluorophenyl)methyl]oxy}phenyl)methyl]-1,3-thiazole-4-carboxylate], the IC50 was no more than 31.6 nM. As to `O=C(O)c1csc(Cc2cc(Br)ccc2OCc2ccc(F)cc2F)n1` [Example 53, Sodium 2-[(5-bromo-2-{[(2,4-difluorophenyl)methyl]oxy}phenyl)methyl]-1,3-thiazole-4-carboxylate], the IC50 was no more than 31.6 nM.

Consider `O=C(O)c1csc(Cc2cc(Br)ccc2OCc2ccc(Br)cc2)n1` [Example 54, Sodium 2-[(5-bromo-2-{[(4-bromophenyl)methyl]oxy}phenyl)methyl]-1,3-thiazole-4-carboxylate], for which the IC50 was no more than 31.6 nM. Take `O=C(O)c1csc(Cc2cc(Br)ccc2OCc2c(F)cc(F)cc2F)n1` [Example 55, Sodium 2-[(5-bromo-2-{[(2,4,6-trifluorophenyl)methyl]oxy}phenyl)methyl]-1,3-thiazole-4-carboxylate]: the IC50 is no more than 1000 nM. The result for `O=C(O)c1csc(Cc2cc(Br)ccc2OCc2ccc(Cl)cc2)n1` [Example 56, Sodium 2-[(5-bromo-2-{[(4-chlorophenyl)methyl]oxy}phenyl)methyl]-1,3-thiazole-4-carboxylate] reads no more than 31.6 nM; that for `O=C(O)c1csc(Cc2cc(Br)ccc2OCc2ccccc2)n1` [Example 57, Sodium 2-({5-bromo-2-[(phenylmethyl)oxy]phenyl}methyl)-1,3-thiazole-4-carboxylate], no more than 31.6 nM. Regarding `O=C(O)c1csc(Cc2cc(Br)ccc2OCc2cc(F)c(F)cc2F)n1` [Example 58, Sodium 2-[(5-bromo-2-{[(2,4,5-trifluorophenyl)methyl]oxy}phenyl)methyl]-1,3-thiazole-4-carboxylate], the IC50 is no more than 31.6 nM. `O=C(O)c1csc(Cc2cc(Br)ccc2OCc2c(F)ccc(F)c2F)n1` [Example 59, Sodium 2-[(5-bromo-2-{[(2,3,6-trifluorophenyl)methyl]oxy}phenyl)methyl]-1,3-thiazole-4-carboxylate]: the IC50 was no more than 31.6 nM. Turning to `O=C(O)c1csc(Cc2cc(Br)ccc2OCc2ccc(Cl)cc2F)n1` [Example 60, Sodium 2-[(5-bromo-2-{[(4-chloro-2-fluorophenyl)methyl]oxy}phenyl)methyl]-1,3-thiazole-4-carboxylate], the IC50 is no more than 31.6 nM. On to `O=C(O)c1csc(Cc2cc(Br)ccc2OCc2ccc(F)cc2Cl)n1` [Example 61, Sodium 2-[(5-bromo-2-{[(2-chloro-4-fluorophenyl)methyl]oxy}phenyl)methyl]-1,3-thiazole-4-carboxylate], for which the IC50 is no more than 31.6 nM. As to `O=C(O)Cc1csc(-c2cc(Cl)ccc2OCc2ccccc2F)n1` [Example 62, Sodium [2-(5-chloro-2-{[(2-fluorophenyl)methyl]oxy}phenyl)-1,3-thiazol-4-yl]acetate], the IC50 was no more than 1000 nM. Consider `O=C(O)Cc1csc(-c2cc(Cl)ccc2OCc2ccc(F)cc2F)n1` [Example 63, Sodium [2-(5-chloro-2-{[(2,4-difluorophenyl)methyl]oxy}phenyl)-1,3-thiazol-4-yl]acetate], for which the IC50 was no more than 1000 nM.
